Source: EP0754193B1, “HEPATITIS C VIRUS CORE PEPTIDE FOR STIMULATION OF CYTOTOXIC T LYMPHOCYTES AND DIAGNOSIS OF HCV EXPOSURE” (priority 1994, dated 1995)
Where no end group is shown, it is not given here.

System: 18Neo (H-2^d; class I MHC^+, class II MHC^- neomycin-resistance gene-transfected 3T3 fibroblast)
Conditions: in the absence of CTL

In the case of GFADLMGYIPLVGAPL [Peptide C7], the “direct toxicity to the cells” value is reported as “not directly toxic”.
